Numbers after ± are expanded uncertainties.
Test: mn = molality of the nth substance listed, in mol/kg
Conditions: Liquid, Vibrating tube method

[Br-].[Li+] [lithium bromide] + CCO
mass density (273.09 K, 4590 kPa, m1 = 2.272): 943.92 ± 1.9 kg/m3
mass density (273.13 K, 30024 kPa, m1 = 0.2335): 841.53 ± 1.7 kg/m3
mass density (273.14 K, 5012 kPa, m1 = 0.2335): 824.8 ± 1.7 kg/m3
mass density (273.14 K, 29954 kPa, m1 = 2.833): 990.17 ± 2 kg/m3
mass density (273.14 K, 49926 kPa, m1 = 2.833): 1001.06 ± 2 kg/m3
mass density (273.14 K, 80014 kPa, m1 = 0.2335): 868.58 ± 1.8 kg/m3
mass density (273.15 K, 1023 kPa, m1 = 0.2335): 821.76 ± 1.6 kg/m3
mass density (273.15 K, 1024 kPa, m1 = 0.9499): 866.06 ± 1.7 kg/m3
mass density (273.15 K, 1024 kPa, m1 = 2.833): 971.83 ± 1.9 kg/m3
mass density (273.15 K, 1537 kPa, m1 = 3.368): 1000.06 ± 2 kg/m3
mass density (273.15 K, 2048 kPa, m1 = 1.462): 896.66 ± 1.8 kg/m3
mass density (273.15 K, 5002 kPa, m1 = 2.833): 974.56 ± 1.9 kg/m3
mass density (273.15 K, 5021 kPa, m1 = 0.9499): 868.77 ± 1.7 kg/m3
mass density (273.15 K, 10002 kPa, m1 = 0.2335): 828.53 ± 1.7 kg/m3
mass density (273.15 K, 10002 kPa, m1 = 0.9499): 872.07 ± 1.8 kg/m3
mass density (273.15 K, 10177 kPa, m1 = 2.272): 947.5 ± 1.9 kg/m3
mass density (273.15 K, 19956 kPa, m1 = 2.833): 984.22 ± 2 kg/m3
mass density (273.15 K, 20031 kPa, m1 = 0.2335): 835.19 ± 1.7 kg/m3
mass density (273.15 K, 20031 kPa, m1 = 0.9499): 878.51 ± 1.8 kg/m3
mass density (273.15 K, 30045 kPa, m1 = 0.9499): 884.65 ± 1.8 kg/m3
mass density (273.15 K, 39945 kPa, m1 = 0.2335): 847.51 ± 1.7 kg/m3
mass density (273.15 K, 39974 kPa, m1 = 2.833): 995.79 ± 2 kg/m3
mass density (273.15 K, 40015 kPa, m1 = 0.9499): 890.49 ± 1.8 kg/m3
mass density (273.15 K, 49923 kPa, m1 = 0.2335): 853.22 ± 1.7 kg/m3
mass density (273.15 K, 50027 kPa, m1 = 0.9499): 896.06 ± 1.8 kg/m3
mass density (273.15 K, 59570 kPa, m1 = 2.272): 975.51 ± 2 kg/m3
mass density (273.15 K, 60021 kPa, m1 = 2.833): 1006.15 ± 2 kg/m3
mass density (273.15 K, 60029 kPa, m1 = 0.9499): 901.35 ± 1.8 kg/m3
mass density (273.15 K, 69980 kPa, m1 = 2.272): 980.49 ± 2 kg/m3
mass density (273.15 K, 70002 kPa, m1 = 0.9499): 906.34 ± 1.8 kg/m3
mass density (273.15 K, 70003 kPa, m1 = 0.2335): 863.78 ± 1.8 kg/m3
mass density (273.15 K, 70035 kPa, m1 = 2.833): 1010.98 ± 2 kg/m3
mass density (273.15 K, 79857 kPa, m1 = 2.272): 985.04 ± 2 kg/m3
mass density (273.15 K, 79954 kPa, m1 = 0.9499): 911.03 ± 1.9 kg/m3
mass density (273.15 K, 89925 kPa, m1 = 2.272): 989.55 ± 2 kg/m3
mass density (273.15 K, 89935 kPa, m1 = 0.9499): 915.46 ± 1.9 kg/m3
mass density (273.15 K, 89956 kPa, m1 = 2.833): 1020.12 ± 2.1 kg/m3
mass density (273.15 K, 90023 kPa, m1 = 0.2335): 873.07 ± 1.8 kg/m3
mass density (273.15 K, 99945 kPa, m1 = 0.2335): 877.21 ± 1.9 kg/m3
mass density (273.15 K, 99986 kPa, m1 = 0.9499): 919.63 ± 1.9 kg/m3
mass density (273.15 K, 99986 kPa, m1 = 2.833): 1024.57 ± 2.1 kg/m3
mass density (273.16 K, 5195 kPa, m1 = 1.462): 898.75 ± 1.8 kg/m3
mass density (273.16 K, 10032 kPa, m1 = 2.833): 977.92 ± 2 kg/m3
mass density (273.16 K, 20027 kPa, m1 = 3.368): 1011.76 ± 2 kg/m3
mass density (273.16 K, 29980 kPa, m1 = 3.368): 1017.69 ± 2 kg/m3
mass density (273.16 K, 39977 kPa, m1 = 3.368): 1023.39 ± 2 kg/m3
mass density (273.16 K, 49994 kPa, m1 = 0.5972): 875.26 ± 1.8 kg/m3
mass density (273.16 K, 59884 kPa, m1 = 0.5972): 880.54 ± 1.8 kg/m3
mass density (273.16 K, 59985 kPa, m1 = 0.2335): 858.67 ± 1.8 kg/m3
mass density (273.16 K, 69990 kPa, m1 = 0.5972): 885.63 ± 1.8 kg/m3
mass density (273.16 K, 80061 kPa, m1 = 2.833): 1015.64 ± 2 kg/m3
mass density (273.16 K, 100090 kPa, m1 = 2.272): 994.02 ± 2 kg/m3
mass density (273.17 K, 1948 kPa, m1 = 2.272): 941.72 ± 1.9 kg/m3
mass density (273.17 K, 9742 kPa, m1 = 1.462): 901.73 ± 1.8 kg/m3
mass density (273.17 K, 10114 kPa, m1 = 3.368): 1005.6 ± 2 kg/m3
mass density (273.17 K, 19964 kPa, m1 = 0.5972): 857.46 ± 1.7 kg/m3
mass density (273.17 K, 20349 kPa, m1 = 2.272): 953.97 ± 1.9 kg/m3
mass density (273.17 K, 29947 kPa, m1 = 2.272): 959.72 ± 1.9 kg/m3
mass density (273.17 K, 29993 kPa, m1 = 0.5972): 863.7 ± 1.7 kg/m3
mass density (273.17 K, 39918 kPa, m1 = 0.5972): 869.58 ± 1.8 kg/m3
mass density (273.17 K, 49964 kPa, m1 = 2.272): 970.63 ± 1.9 kg/m3
mass density (273.17 K, 49974 kPa, m1 = 3.368): 1028.82 ± 2.1 kg/m3
mass density (273.17 K, 80091 kPa, m1 = 0.5972): 890.43 ± 1.8 kg/m3
mass density (273.17 K, 89924 kPa, m1 = 3.368): 1047.9 ± 2.1 kg/m3
mass density (273.17 K, 89993 kPa, m1 = 0.5972): 894.84 ± 1.9 kg/m3
mass density (273.17 K, 99951 kPa, m1 = 3.368): 1052.03 ± 2.1 kg/m3
mass density (273.18 K, 1306 kPa, m1 = 0.5972): 845.06 ± 1.7 kg/m3
mass density (273.18 K, 4686 kPa, m1 = 0.5972): 847.38 ± 1.7 kg/m3
mass density (273.18 K, 4965 kPa, m1 = 3.368): 1002.3 ± 2 kg/m3
mass density (273.18 K, 9917 kPa, m1 = 0.5972): 850.91 ± 1.7 kg/m3
mass density (273.18 K, 20115 kPa, m1 = 1.462): 908.3 ± 1.8 kg/m3
mass density (273.18 K, 29966 kPa, m1 = 1.462): 914.27 ± 1.8 kg/m3
mass density (273.18 K, 49922 kPa, m1 = 1.462): 925.55 ± 1.9 kg/m3
mass density (273.18 K, 60091 kPa, m1 = 1.462): 930.87 ± 1.9 kg/m3
mass density (273.18 K, 60277 kPa, m1 = 3.368): 1034.14 ± 2.1 kg/m3
mass density (273.18 K, 69993 kPa, m1 = 1.462): 935.78 ± 1.9 kg/m3
mass density (273.18 K, 69994 kPa, m1 = 3.368): 1038.9 ± 2.1 kg/m3
mass density (273.18 K, 79725 kPa, m1 = 3.368): 1043.43 ± 2.1 kg/m3
mass density (273.18 K, 80129 kPa, m1 = 1.462): 940.52 ± 1.9 kg/m3
mass density (273.18 K, 89963 kPa, m1 = 1.462): 944.86 ± 1.9 kg/m3
mass density (273.18 K, 100098 kPa, m1 = 0.5972): 899.04 ± 1.9 kg/m3
mass density (273.19 K, 39973 kPa, m1 = 1.462): 920.07 ± 1.9 kg/m3
mass density (273.19 K, 40359 kPa, m1 = 2.272): 965.49 ± 1.9 kg/m3
mass density (273.2 K, 99708 kPa, m1 = 1.462): 948.89 ± 1.9 kg/m3
mass density (293.12 K, 9790 kPa, m1 = 1.462): 886.75 ± 1.8 kg/m3
mass density (293.13 K, 1999 kPa, m1 = 1.462): 881.23 ± 1.8 kg/m3
mass density (293.13 K, 5005 kPa, m1 = 1.462): 883.38 ± 1.8 kg/m3
mass density (293.13 K, 19962 kPa, m1 = 1.462): 893.68 ± 1.8 kg/m3
mass density (293.13 K, 29997 kPa, m1 = 1.462): 900.21 ± 1.8 kg/m3
mass density (293.13 K, 30014 kPa, m1 = 0.2335): 827.08 ± 1.7 kg/m3
mass density (293.13 K, 40468 kPa, m1 = 1.462): 906.69 ± 1.8 kg/m3
mass density (293.13 K, 49901 kPa, m1 = 1.462): 912.25 ± 1.8 kg/m3
mass density (293.13 K, 59950 kPa, m1 = 3.368): 1019.25 ± 2 kg/m3
mass density (293.14 K, 5014 kPa, m1 = 0.2335): 809.13 ± 1.6 kg/m3
mass density (293.14 K, 10097 kPa, m1 = 3.368): 989.9 ± 2 kg/m3
mass density (293.14 K, 19953 kPa, m1 = 2.833): 969.14 ± 1.9 kg/m3
mass density (293.14 K, 49968 kPa, m1 = 2.833): 986.92 ± 2 kg/m3
mass density (293.14 K, 49985 kPa, m1 = 0.2335): 839.79 ± 1.7 kg/m3
mass density (293.14 K, 59817 kPa, m1 = 0.5972): 867.48 ± 1.8 kg/m3
mass density (293.14 K, 60137 kPa, m1 = 1.462): 917.97 ± 1.9 kg/m3
mass density (293.14 K, 69946 kPa, m1 = 3.368): 1024.25 ± 2.1 kg/m3
mass density (293.14 K, 69979 kPa, m1 = 0.5972): 872.97 ± 1.8 kg/m3
mass density (293.14 K, 69979 kPa, m1 = 1.462): 923.18 ± 1.9 kg/m3
mass density (293.14 K, 79675 kPa, m1 = 0.5972): 877.88 ± 1.8 kg/m3
mass density (293.15 K, 1003 kPa, m1 = 0.2335): 805.64 ± 1.6 kg/m3
